The values below come from article PMC8041284, “Tunable Methacrylamides for Covalent Ligand Directed Release Chemistry” (Journal of the American Chemical Society, 2021).

For the test, the target named is BTK (Homo sapiens, UniProt Q06187). The test is described as follows: biochemical. The settings on record: read-out: BTK inhibition (%), 0.75 uM BTK, […] probe 3l, 15 min preincubation.
Chain of BTK (Q06187 402-655 limits assumed): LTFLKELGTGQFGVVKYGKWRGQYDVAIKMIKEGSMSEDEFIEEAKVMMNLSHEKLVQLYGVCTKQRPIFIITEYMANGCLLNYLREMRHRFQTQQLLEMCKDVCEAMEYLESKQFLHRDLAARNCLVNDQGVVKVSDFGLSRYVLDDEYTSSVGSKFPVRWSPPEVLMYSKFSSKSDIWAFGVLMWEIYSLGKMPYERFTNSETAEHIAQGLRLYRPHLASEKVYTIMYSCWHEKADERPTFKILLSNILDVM
One may read the inhibition as the relative decrease from the control value, in per cent. As for `Cc1cc(Nc2ncnc3ccc(-c4ccc(CNCCS(C)(=O)=O)o4)cc23)ccc1Oc1ccn2ncnc2c1` [PCM-0095494], the inhibition at 10 µM was -21.4%. The value for `COc1ccc(Cn2ccc3ccc(C(=O)NO)cc32)cc1` [PCM-0095291] was 33.5%; that for `O=C[C@H](O)[C@@H](O)[C@H](O)[C@H](O)COP(=O)(O)O` [PCM-0216185] was 13.6%; that for `CCCSc1ccc2nc(NC(=O)OC)[nH]c2c1` [PCM-0085774] was -10.1%. In the case of `COc1cc(N2CCC(N(C)C)CC2)ccc1Nc1ncc(Cl)c(Nc2ccccc2P(C)(C)=O)n1` [PCM-0215177] it was 64.8%; in that of `O=C1Nc2ccc(CN3C(=O)CSC3=O)cc2/C1=C/c1cc(CN2CCOCC2)c[nH]1` [PCM-0215763], -11%. In the case of `CC(C)=C1CC[C@@H](C)CC1=O` [PCM-0216421] it was 14.7%. With `CCCCN1CCCC[C@H]1C(=O)Nc1c(C)cccc1C` [PCM-0214809], the inhibition at 10 µM was -25.7%. Regarding `C[C@@H]1C[C@H]2[C@@H]3CCC4=CC(=O)C=C[C@]4(C)[C@@]3(Cl)[C@@H](O)C[C@]2(C)[C@@]1(OC(=O)c1ccco1)C(=O)CCl` [PCM-0085978], the inhibition at 10 µM amounted to 40%. In the case of `CCOc1cc2ncc(C#N)c(Nc3ccc(F)c(Cl)c3)c2cc1NC(=O)/C=C/CN(C)C` [PCM-0095063] it was 96.6%; in that of `Cc1ccc(-c2n[nH]c3c2C(c2cccc(O)c2)N(c2ccc(C(=O)O)cc2)C3=O)cc1` (stereo not drawn) [PCM-0216247], 41.7%; in that of `C[C@]12CC[C@H](O)CC1=CC[C@@H]1[C@@H]2CC[C@]2(C)C(n3cnc4ccccc43)=CC[C@@H]12` [PCM-0095399], 0%. As to `CN1CCN(C2CCN(C(=O)Nc3cc(Oc4ccc(NC(=O)C5(C(=O)Nc6ccc(F)cc6)CC5)c(F)c4)ccn3)CC2)CC1` [PCM-0095502], the inhibition at 10 µM was 17.2%.

`CC(C)=CCC[C@](C)(O)[C@H]1CC[C@]2(C)[C@@H]1[C@H](O)C[C@@H]1[C@@]3(C)CC[C@H](O[C@@H]4O[C@H](CO)[C@@H](O)[C@H](O)[C@H]4O[C@@H]4O[C@H](CO)[C@@H](O)[C@H](O)[C@H]4O)C(C)(C)[C@@H]3CC[C@]12C` [PCM-0216610]: the inhibition at 10 µM was 16.2%. The value for `C=C1C[C@@]23CC[C@H]4[C@@](C)(CCC[C@@]4(C)C(=O)O[C@@H]4O[C@H](CO)[C@@H](O)[C@H](O)[C@H]4O)[C@@H]2CC[C@]1(O[C@@H]1O[C@H](CO)[C@@H](O)[C@H](O[C@@H]2O[C@H](CO)[C@@H](O)[C@H](O)[C@H]2O)[C@H]1O[C@@H]1O[C@@H](C)[C@H](O)[C@@H](O)[C@H]1O)C3` [PCM-0214859] was -14.8%. `CC(=O)O[C@@H]1C[C@H](O)[C@@]23CO[C@@H](O)[C@]1(C)[C@@H]2C[C@@H](O)[C@]1(C)[C@@H]3C(=O)[C@H](OC(C)=O)[C@@]2(C)[C@H](c3ccoc3)C[C@H]3O[C@]321` [PCM-0216537]: the inhibition at 10 µM is -15.4%. As to `C=CC(=O)Nc1cc2c(Nc3ccc(F)c(Cl)c3)ncnc2cc1OCCCN1CCOCC1` [PCM-0094917], the inhibition at 10 µM worked out at 93.6%. The value for `O=C(/C=C/c1ccccc1)NC(NC(=S)Nc1ccc(Cl)cc1)C(Cl)(Cl)Cl` (stereo not drawn) [PCM-0095765] was 34%. In the case of `CC(C)c1nc(CN(C)C(=O)N[C@H](C(=O)N[C@@H](Cc2ccccc2)C[C@H](O)[C@H](Cc2ccccc2)NC(=O)OCc2cncs2)C(C)C)cs1` [PCM-0214603] it was -19.5%. With `CCN(CC)CCN(Cc1ccc(-c2ccc(C(F)(F)F)cc2)cc1)C(=O)Cn1c(SCc2ccc(F)cc2)nc(=O)c2c1CCC2` [PCM-0095746], the inhibition at 10 µM is -30.1%. Consider `CCN[C@H]1C[C@H](C)S(=O)(=O)c2sc(S(N)(=O)=O)cc21` [PCM-0086331], for which the inhibition at 10 µM came to 10.2%. The value for `CC(=O)OC(C)(C)CCC(=O)[C@](C)(O)[C@H]1[C@H](O)C[C@@]2(C)[C@@H]3CC=C4[C@@H](C[C@H](O)[C@@H](O)C4(C)C)[C@]3(C)C(=O)C[C@]12C` [PCM-0214543] was -13.8%; that for `Cc1ccc(C(=O)c2ccc(CC(=O)O)n2C)cc1` [PCM-0215259] was 9.4%. The value for `C[C@@H]1CC[C@@]2(OC1)O[C@H]1C[C@H]3[C@@H]4CC=C5C[C@@H](O[C@@H]6O[C@H](CO)[C@@H](O)[C@H](O[C@@H]7O[C@H](CO)[C@@H](O)[C@H](O)[C@H]7O)[C@H]6O[C@@H]6O[C@@H](C)[C@H](O)[C@@H](O)[C@H]6O)CC[C@]5(C)[C@H]4CC[C@]3(C)[C@H]1[C@@H]2C` [PCM-0215006] was -3.1%. The value for `O=C1O[C@H]([C@@H](O)CO)C(O)=C1OP(=O)(O)O` [PCM-0215970] was -4.3%; that for `CCOC(=O)c1cnc2ccc(-c3cncc(NS(=O)(=O)c4ccccc4)c3)cn12` [PCM-0215311] was -4.1%; that for `COc1cc2c(=O)c(-c3ccc(O)cc3)coc2cc1O[C@@H]1O[C@H](CO)[C@@H](O)[C@H](O)[C@H]1O` [PCM-0214955] was 15.6%.

As to `O=C(Nc1cccnc1)c1cc(-c2ccnc(F)c2)ccc1OCc1ccccc1` [PCM-0213433], the inhibition at 10 µM amounted to 2.1%.

With `Cc1ccc(NCCCc2ccccc2)c(N)c1` [PCM-0095790], the inhibition at 10 µM is 17%.

In the case of `O=C(/C=C/c1ccc(O)cc1)c1ccc(O)cc1O` [PCM-0065490], the inhibition at 10 µM worked out at 17.1%. In the case of `CC(C)(O)CC(=O)NCCn1ccc2ncnc(Nc3ccc(Oc4cccc(C(F)(F)F)c4)c(Cl)c3)c21` [PCM-0095364] it was 73.8%; in that of `CC(=O)OC/C=C/c1ccccc1` [PCM-0216207], -14.7%; in that of `CCCc1nc(C(C)(C)O)c(C(=O)OCc2oc(=O)oc2C)n1Cc1ccc(-c2ccccc2-c2nn[nH]n2)cc1` [PCM-0086318], 0.8%.

For the compound `CCCC(=O)O[C@]1(C(=O)COC(C)=O)CC[C@H]2[C@@H]3C[C@H](F)C4=CC(=O)C=C[C@]4(C)[C@@]3(F)[C@@H](O)C[C@@]21C` [PCM-0214767], the inhibition at 10 µM is -3.4%.

Consider `O=C(O)c1ccccc1C(=O)Nc1ccc(-c2ccccc2)cc1` [PCM-0215383], for which the inhibition at 10 µM came out at 13.9%. In the case of `C[C@H](CC(=O)C[C@@H](C)[C@H]1C[C@H](O)[C@@]2(C)C3=C(C(=O)C[C@]12C)[C@@]1(C)CCC(=O)C(C)(C)[C@@H]1C[C@@H]3O)C(=O)O` [PCM-0214862] it was -6.2%; in that of `O=c1cc(-c2ccc(O)c(O)c2)oc2cc(O)cc(O)c12` [PCM-0086559], 84.8%; in that of `Cc1cc(O)cc(O[C@@H]2O[C@H](CO)[C@@H](O)[C@H](O)[C@H]2O)c1` [PCM-0214958], -10.1%.

Take `CCCCCC(=O)O[C@]1(C(C)=O)CC[C@H]2[C@@H]3CCC4=CC(=O)CC[C@]4(C)[C@H]3CC[C@@]21C` [PCM-0214832]: the inhibition at 10 µM is -23.3%.

With `Cc1nc2n(c(=O)c1CCN1CCC(c3noc4cc(F)ccc34)CC1)CCCC2O` (stereo not drawn) [PCM-0065046], the inhibition at 10 µM was 6%. The value for `CC(C)C[C@H](NC(=O)CNC(=O)c1cc(Cl)ccc1Cl)B1OC(=O)CC(CC(=O)O)(C(=O)O)O1` (stereo partly drawn) [PCM-0095225] was -2.1%; that for `COc1cc(OC2CCN(C)CC2)ccc1Nc1ncc2c(n1)n(C1CCCC1)c(=O)n2C` [PCM-0095460] was -15.2%. As to `CCCNC[C@]1(O)[C@H](C)O[C@@H](O[C@H]2[C@H](C)[C@@H](O[C@@H]3O[C@H](C)C[C@H](N(C)C)[C@H]3O)[C@](C)(O)C[C@@H](C)CN[C@H](C)[C@@H](O)[C@](C)(O)[C@@H](CC)OC(=O)[C@@H]2C)C[C@@]1(C)OC` [PCM-0214927], the inhibition at 10 µM was -26.5%. The value for `CCN1CCN(C(=O)N[C@@H](C(=O)N[C@@H]2C(=O)N3C(C(=O)O)=C(CSc4nnnn4C)CS[C@H]23)c2ccc(O)cc2)C(=O)C1=O` [PCM-0085943] was -12.5%. `CC(=O)O[C@H]1CC(=O)OC(C)(C)[C@@H]2CC(=O)[C@]3(C)[C@H](CC[C@@]4(C)[C@H](c5ccoc5)OC(=O)[C@H]5O[C@]543)[C@@]12C` [PCM-0216014]: the inhibition at 10 µM was 13.9%.

With `C=C(C)[C@@H]1CC[C@]2(C(=O)O)CC[C@]3(C)[C@H](CC[C@@H]4[C@@]5(C)CC[C@H](O[C@@H]6OC[C@H](O)[C@H](O)[C@H]6O[C@@H]6O[C@@H](C)[C@H](O)[C@@H](O)[C@H]6O)[C@@](C)(CO)[C@@H]5CC[C@]43C)[C@@H]12` [PCM-0216514], the inhibition at 10 µM amounted to 34%. Consider `COc1ccc(-c2cc(=O)c3c(O)cc(O[C@@H]4O[C@H](CO[C@@H]5O[C@@H](C)[C@H](O)[C@@H](O)[C@H]5O)[C@@H](O)[C@H](O)[C@H]4O)cc3o2)cc1` [PCM-0216526], for which the inhibition at 10 µM is 14.7%. The value for `Nc1ccc(S(=O)(=O)Nc2cnc3ccccc3n2)cc1` [PCM-0215994] was 8.5%; that for `CC1(C)CC[C@]2(C(=O)O)[C@H](O)C[C@]3(C)C(=CC[C@@H]4[C@@]5(C)CC[C@H](O)[C@@](C)(C=O)[C@@H]5CC[C@]43C)[C@@H]2C1` [PCM-0216608] was -8.5%; that for `C=C1CCN([C@H](C)[C@](O)(Cn2cncn2)c2ccc(F)cc2F)CC1` [PCM-0215992] was -13.1%. The value for `COc1c(O)c(C)cc2c1C(=O)c1c(O)cccc1C2=O` [PCM-0216457] was 64.1%. In the case of `C[C@@H](N)C(=O)N[C@@H](CO)C(=O)N[C@H](C(=O)N[C@H](C(=O)N[C@H](C(=O)N[C@@H](CC(N)=O)C(=O)N[C@@H](Cc1ccc(O)cc1)C(=O)N[C@H](C(N)=O)[C@@H](C)O)[C@@H](C)O)[C@@H](C)O)[C@@H](C)O` [PCM-0215819] it was 11.1%; in that of `CC(N)C12CC3CC(CC(C3)C1)C2` (stereo not drawn) [PCM-0012697], 3.1%. As for `CCc1c2c(nc3ccc(O)cc13)-c1cc3c(c(=O)n1C2)COC(=O)[C@]3(O)CC` [PCM-0091516], the inhibition at 10 µM is -28.8%. For `O=C(O)CCCCCCCC(O)C(O)CCCCCCO` (stereo not drawn) [PCM-0215978], the inhibition at 10 µM is -13.1%. `Cc1ccc2oc(=O)ccc2c1` [PCM-0215023]: the inhibition at 10 µM was -3.9%. In the case of `COc1cc(C(=O)O)cc(OC)c1OC` [PCM-0215032] it was -21%.
